Experimental data taken from patent US8476256B2, “Diazonamide analogs” (Joyant Pharmaceuticals, Inc., priority 2008, dated 2013).

Experiments:
[1] = system: A2058 (human melanoma) cell line; test: Cell viability assay (CELL-TITER-GLO), A2058; assay type: cell-based; details: A2058 cells, 48 hour treatment, 1 nM to 1 μM
Method: (§1) Cell viability assays were run using standard protocols known to those of skill in art. Cells were plated in 96 well plates at the density of 3,000-10,000 cells per well. Twenty four hours later, cells were treated with increasing concentration of test compounds (1 nM to 1 μM). After another 48 hour, cell survival was measured using CELL-TITER-GLO® reagent (Promega) following the protocol provided by the manufacture. The IC50 value was determined as the concentration of test compound that kills 50% of the cell population.
(§2) Cell viability data generated according to the protocol described herein was generated for representative compounds in the A2058 (human melanoma) and U937 (human leukemic monocyte lymphoma) cell lines. The compound of Example 16 (“Compound J”) was used as a reference compound.

[2] = system: U937 (human leukemic monocyte lymphoma) cell line; test: Cell viability assay (CELL-TITER-GLO), U937; assay type: cell-based; details: U-937, U937 cells, 48 hour treatment, 1 nM to 1 μM
Method: as §1, §2

Compound | IC50 [1] | IC50 [2]
CN[C@H](C(=O)N[C@H]1Cc2ccc3c(c2)C24C5=C(N=C(O5)[C@H](C(C)C)NC1=O)c1ncc(o1)-c1c[nH]c5cccc(c15)-c1cccc2c1N[C@H]4O3)C(C)C (stereo partly shown) [Example 34] | 0.221 µM | 0.393 µM
CC(=O)N[C@H](C(=O)N[C@H]1Cc2ccc3c(c2)C24C5=C(N=C(O5)[C@H](C(C)C)NC1=O)c1ncc(o1)-c1c[nH]c5cccc(c15)-c1cccc2c1N[C@H]4O3)C(C)C (stereo partly shown) [Example 35] | 0.232 µM | 0.183 µM
CC(C)C1NC(=O)[C@@H](NC(=O)[C@@H]2CCCN2)Cc2ccc3c(c2)C24C5=C(N=C1O5)c1ncc(o1)-c1c[nH]c5cccc(c15)-c1cccc2c1N[C@H]4O3 (stereo partly shown) [Example 36] | > 1 µM | > 1 µM
CC(C)C1NC(=O)[C@@H](NC(=O)[C@@H]2C[C@@H](O)CN2)Cc2ccc3c(c2)C24C5=C(N=C1O5)c1ncc(o1)-c1c[nH]c5cccc(c15)-c1cccc2c1N[C@H]4O3 (stereo partly shown) [Example 37] | > 1 µM | > 1 µM
CC(C)CC(=O)N[C@H]1Cc2ccc3c(c2)[C@]24C5=C(N=C(O5)[C@H](C(C)C)NC1=O)c1ncc(o1)-c1c[nH]c5cccc(c15)-c1cccc2c1NC4O3 (stereo partly shown) [Example 38] | 0.417 µM | 0.216 µM
CC[C@H](C)C(=O)NC1Cc2ccc3c(c2)[C@]24C5=C(N=C(O5)[C@H](C(C)C)NC1=O)c1ncc(o1)-c1c[nH]c5cccc(c15)-c1cccc2c1NC4O3 (stereo partly shown) [Example 39] | 0.707 µM | 0.555 µM
CCC(C)(C)C(=O)NC1Cc2ccc3c(c2)[C@]24C5=C(N=C(O5)[C@H](C(C)C)NC1=O)c1ncc(o1)-c1c[nH]c5cccc(c15)-c1cccc2c1NC4O3 (stereo partly shown) [Example 40] | 0.233 µM | 0.164 µM
CCCC(C)(C)C(=O)NC1Cc2ccc3c(c2)[C@]24C5=C(N=C(O5)[C@H](C(C)C)NC1=O)c1ncc(o1)-c1c[nH]c5cccc(c15)-c1cccc2c1NC4O3 (stereo partly shown) [Example 41] | 0.397 µM | 0.22 µM
CC(C)=CC(=O)NC1Cc2ccc3c(c2)[C@]24C5=C(N=C(O5)[C@H](C(C)C)NC1=O)c1ncc(o1)-c1c[nH]c5cccc(c15)-c1cccc2c1NC4O3 (stereo partly shown) [Example 42] | 0.409 µM | 0.221 µM
CC/C=C/C(=O)NC1Cc2ccc3c(c2)[C@]24C5=C(N=C(O5)[C@H](C(C)C)NC1=O)c1ncc(o1)-c1c[nH]c5cccc(c15)-c1cccc2c1NC4O3 (stereo partly shown) [Example 43] | 0.356 µM | 0.186 µM
CC/C=C(\C)C(=O)NC1Cc2ccc3c(c2)[C@]24C5=C(N=C(O5)[C@H](C(C)C)NC1=O)c1ncc(o1)-c1c[nH]c5cccc(c15)-c1cccc2c1NC4O3 (stereo partly shown) [Example 44] | 0.587 µM | 0.399 µM
CC(C)=CCC/C(C)=C/C(=O)NC1Cc2ccc3c(c2)[C@]24C5=C(N=C(O5)[C@H](C(C)C)NC1=O)c1ncc(o1)-c1c[nH]c5cccc(c15)-c1cccc2c1NC4O3 (stereo partly shown) [Example 45] | 0.887 µM | 0.78 µM
CC(C)C(Br)C(=O)NC1Cc2ccc3c(c2)[C@]24C5=C(N=C(O5)[C@H](C(C)C)NC1=O)c1ncc(o1)-c1c[nH]c5cccc(c15)-c1cccc2c1NC4O3 (stereo partly shown) [Example 46] | 0.313 µM | 0.443 µM
CCCC(Br)C(=O)NC1Cc2ccc3c(c2)[C@]24C5=C(N=C(O5)[C@H](C(C)C)NC1=O)c1ncc(o1)-c1c[nH]c5cccc(c15)-c1cccc2c1NC4O3 (stereo partly shown) [Example 47] | 0.546 µM | 0.323 µM
CC(C)[C@@H]1NC(=O)C(NC(=O)C2CC2)Cc2ccc3c(c2)[C@]24C5=C(N=C1O5)c1ncc(o1)-c1c[nH]c5cccc(c15)-c1cccc2c1NC4O3 (stereo partly shown) [Example 48] | 0.457 µM | 0.22 µM
CC1CC1C(=O)NC1Cc2ccc3c(c2)[C@]24C5=C(N=C(O5)[C@H](C(C)C)NC1=O)c1ncc(o1)-c1c[nH]c5cccc(c15)-c1cccc2c1NC4O3 (stereo partly shown) [Example 49] | 0.443 µM | 0.245 µM
CC(C)[C@@H]1NC(=O)C(NC(=O)C2CCCC2)Cc2ccc3c(c2)[C@]24C5=C(N=C1O5)c1ncc(o1)-c1c[nH]c5cccc(c15)-c1cccc2c1NC4O3 (stereo partly shown) [Example 50] | 0.339 µM | 0.331 µM
CC(C)[C@@H]1NC(=O)C(NC(=O)C2CCCCC2)Cc2ccc3c(c2)[C@]24C5=C(N=C1O5)c1ncc(o1)-c1c[nH]c5cccc(c15)-c1cccc2c1NC4O3 (stereo partly shown) [Example 51] | 0.235 µM | 0.276 µM
CC(C)[C@@H]1NC(=O)C(NC(=O)C2(C)CCCCC2)Cc2ccc3c(c2)[C@]24C5=C(N=C1O5)c1ncc(o1)-c1c[nH]c5cccc(c15)-c1cccc2c1NC4O3 (stereo partly shown) [Example 52] | 0.386 µM | 0.491 µM
CC(C)[C@@H]1NC(=O)C(NC(=O)[C@@H]2CCOC2)Cc2ccc3c(c2)[C@]24C5=C(N=C1O5)c1ncc(o1)-c1c[nH]c5cccc(c15)-c1cccc2c1NC4O3 (stereo partly shown) [Example 54] | 0.081 µM | 0.078 µM
CC(C)[C@@H]1NC(=O)C(NC(=O)c2ccc(Br)cc2)Cc2ccc3c(c2)[C@]24C5=C(N=C1O5)c1ncc(o1)-c1c[nH]c5cccc(c15)-c1cccc2c1NC4O3 (stereo partly shown) [Example 55] | 0.613 µM | 0.406 µM

Compound | IC50 [1] | IC50 [2]
CC(C)[C@@H]1NC(=O)C(NC(=O)/C=C/C(=O)O)Cc2ccc3c(c2)[C@]24C5=C(N=C1O5)c1ncc(o1)-c1c[nH]c5cccc(c15)-c1cccc2c1NC4O3 (stereo partly shown) [Example 56] | > 1 µM | 0.756 µM
CO[C@@](C(=O)NC1Cc2ccc3c(c2)[C@]24C5=C(N=C(O5)[C@H](C(C)C)NC1=O)c1ncc(o1)-c1c[nH]c5cccc(c15)-c1cccc2c1NC4O3)(c1ccccc1)C(F)(F)F (stereo partly shown) [Example 57] | 0.58 µM | 0.618 µM
CO[C@](C(=O)NC1Cc2ccc3c(c2)[C@]24C5=C(N=C(O5)[C@H](C(C)C)NC1=O)c1ncc(o1)-c1c[nH]c5cccc(c15)-c1cccc2c1NC4O3)(c1ccccc1)C(F)(F)F (stereo partly shown) [Example 58] | > 1 µM | 0.821 µM
COc1cc(C(=O)NC2Cc3ccc4c(c3)C35C6=C(N=C(O6)[C@H](C(C)C)NC2=O)c2ncc(o2)-c2c[nH]c6cccc(c26)-c2cccc3c2N[C@H]5O4)cc(OC)c1OC (stereo partly shown) [Example 59] | 0.798 µM | 0.619 µM
CC(C)[C@@H]1NC(=O)C(NC(=O)C(C)(C)C)Cc2ccc3c(c2)[C@]24C5=C(N=C1O5)c1ncc(o1)-c1c[nH]c5cccc(c15)-c1cccc2c1NC4O3 (stereo partly shown) [Example 60] | 0.538 µM | 0.255 µM
CCCC(C)C(=O)NC1Cc2ccc3c(c2)[C@]24C5=C(N=C(O5)[C@H](C(C)C)NC1=O)c1ncc(o1)-c1c[nH]c5cccc(c15)-c1cccc2c1NC4O3 (stereo partly shown) [Example 61] | 0.636 µM | 0.55 µM
CCC(CC)C(=O)NC1Cc2ccc3c(c2)[C@]24C5=C(N=C(O5)[C@H](C(C)C)NC1=O)c1ncc(o1)-c1c[nH]c5cccc(c15)-c1cccc2c1NC4O3 (stereo partly shown) [Example 62] | 0.556 µM | 0.247 µM
CC(C)[C@@H]1NC(=O)C(NC(=O)c2cccs2)Cc2ccc3c(c2)[C@]24C5=C(N=C1O5)c1ncc(o1)-c1c[nH]c5cccc(c15)-c1cccc2c1NC4O3 (stereo partly shown) [Example 63] | 0.488 µM | 0.206 µM
CC(C)[C@@H]1NC(=O)C(NC(=O)Cc2cccs2)Cc2ccc3c(c2)[C@]24C5=C(N=C1O5)c1ncc(o1)-c1c[nH]c5cccc(c15)-c1cccc2c1NC4O3 (stereo partly shown) [Example 64] | > 1 µM | > 1 µM
CC(C)[C@@H]1NC(=O)C(NC=O)Cc2ccc3c(c2)C24C5=C(N=C1O5)c1ncc(o1)-c1c[nH]c5cccc(c15)-c1cccc2c1N[C@H]4O3 (stereo partly shown) [Example 66] | 0.766 µM | 0.499 µM
CC(C)=CCC/C(C)=C/CNC1Cc2ccc3c(c2)C24C5=C(N=C(O5)[C@H](C(C)C)NC1=O)c1ncc(o1)-c1c[nH]c5cccc(c15)-c1cccc2c1N[C@H]4O3 (stereo partly shown) [Example 67] | > 1 µM | > 1 µM
CC(C)OC(=O)NC1Cc2ccc3c(c2)C24C5=C(N=C(O5)[C@H](C(C)C)NC1=O)c1ncc(o1)-c1c[nH]c5cccc(c15)-c1cccc2c1N[C@H]4O3 (stereo partly shown) [Example 68] | 0.451 µM | 0.214 µM
CC(C)COC(=O)NC1Cc2ccc3c(c2)[C@]24C5=C(N=C(O5)[C@H](C(C)C)NC1=O)c1ncc(o1)-c1c[nH]c5cccc(c15)-c1cccc2c1NC4O3 (stereo partly shown) [Example 69] | 0.541 µM | 0.272 µM
C#CCOC(=O)NC1Cc2ccc3c(c2)[C@]24C5=C(N=C(O5)[C@H](C(C)C)NC1=O)c1ncc(o1)-c1c[nH]c5cccc(c15)-c1cccc2c1NC4O3 (stereo partly shown) [Example 70] | 0.692 µM | 0.434 µM
C=CCOC(=O)NC1Cc2ccc3c(c2)[C@]24C5=C(N=C(O5)[C@H](C(C)C)NC1=O)c1ncc(o1)-c1c[nH]c5cccc(c15)-c1cccc2c1NC4O3 (stereo partly shown) [Example 71] | 0.451 µM | 0.185 µM
CCCSC(=O)NC1Cc2ccc3c(c2)[C@]24C5=C(N=C(O5)[C@H](C(C)C)NC1=O)c1ncc(o1)-c1c[nH]c5cccc(c15)-c1cccc2c1NC4O3 (stereo partly shown) [Example 72] | 0.6 µM | 0.543 µM
CC(C)[C@@H]1NC(=O)C(NS(C)(=O)=O)Cc2ccc3c(c2)C24C5=C(N=C1O5)c1ncc(o1)-c1c[nH]c5cccc(c15)-c1cccc2c1N[C@H]4O3 (stereo partly shown) [Example 73] | 0.14 µM | 0.067 µM
CC(C)[C@@H]1NC(=O)C(NS(=O)(=O)c2ccccc2)Cc2ccc3c(c2)[C@]24C5=C(N=C1O5)c1ncc(o1)-c1c[nH]c5cccc(c15)-c1cccc2c1NC4O3 (stereo partly shown) [Example 74] | 0.429 µM | > 1 µM
CC(C)[C@@H]1NC(=O)C(NS(=O)(=O)c2cccs2)Cc2ccc3c(c2)[C@]24C5=C(N=C1O5)c1ncc(o1)-c1c[nH]c5cccc(c15)-c1cccc2c1NC4O3 (stereo partly shown) [Example 75] | > 1 µM | > 1 µM
COC(=O)c1nc2oc1-c1c[nH]c3cccc(c13)-c1cccc3c1N[C@H]1Oc4ccc5cc4C31c1oc(nc1-2)[C@H](C(C)C)NC(=O)C(NC(=O)[C@@H](O)C(C)C)C5 (stereo partly shown) [Example 76] | 0.013 µM | 0.018 µM
